The subject of this experiment is bacteria.
[1] abbreviates: A. calcoaceticus AC002, agarose dilution.
[2] abbreviates: E. cloacae ECL007, agarose dilution.
Setting [3] is: E. coli ECO005, agarose dilution.
Setting [4] is: E. faecalis EFS001, agarose dilution.
Setting [5] is: E. faecalis EFS008, agarose dilution.
[6] abbreviates: K. pneumoniae KP001, agarose dilution.
Setting [7] is: P. aeruginosa PA004, agarose dilution.
Where [8] appears, read: S. aureus SA014, agarose dilution.
Where [9] appears, read: S. aureus SA093, agarose dilution.
The mark [10] stands for this setting: S. epidermidis SE010, agarose dilution.
Setting [11] is: S. maltophilia SMA002, agarose dilution.
Where [12] appears, read: S. marcescens SMS003, agarose dilution.

Where two headings read alike, the source gives them in different places. A value given as a limit tells only on which side of the number the result lay.

Turning to W W R W P W W P W R R K [MBI 11A10CN], the MIC under setting [1] was 4 µg/mL; the MIC under setting [2] was 64 µg/mL; the MIC under setting [3] was found to be 16 µg/mL; the MIC under setting [4] is 4 µg/mL; the MIC under setting [5] worked out at 16 µg/mL; the MIC under setting [6] was 16 µg/mL. Moreover, the MIC reads like this: under setting [7], 64 µg/mL; under setting [8], 4 µg/mL; under setting [9], 2 µg/mL; under setting [10], 4 µg/mL; under setting [11], 32 µg/mL; under setting [12], greater than 128 µg/mL.

With I L K K W W W P W R R K [MBI 11G4CN], the MIC (A. calcoaceticus AC002) is 4 µg/mL; the MIC (E. cloacae ECL007) was greater than 128 µg/mL; the MIC (E. coli ECO005) was determined as 32 µg/mL; the MIC (E. faecalis EFS002) is 32 µg/mL; the MIC (E. faecium EFM003) is 1 µg/mL; the MIC (K. pneumoniae KP001) was greater than 128 µg/mL. The MIC is greater than 128 µg/mL (P. aeruginosa PA004); 1 µg/mL (S. aureus SA004); 2 µg/mL (S. epidermidis SE010); 64 µg/mL (S. maltophilia SMA002); greater than 128 µg/mL (S. marcescens SMS003).

For W R W W K P K W R W P K W [MBI 11J02CN], the MIC runs as follows: under setting [1], 4 µg/mL; under setting [2], 64 µg/mL; under setting [3], 4 µg/mL; under setting [4], 4 µg/mL; under setting [5], 16 µg/mL; under setting [6], 4 µg/mL. In addition, the MIC is 32 µg/mL under setting [7]; 2 µg/mL under setting [8]; 1 µg/mL under setting [9]; 2 µg/mL under setting [10]; 8 µg/mL under setting [11]; greater than 128 µg/mL under setting [12].

Turning to “ILRWPWWPWRRKDMILKKAGS [MBI 11B18CN]”, the MIC is 2 µg/mL (A. calcoaceticus AC002); greater than 128 µg/mL (E. cloacae ECL007); 32 µg/mL (E. coli ECO005); 4 µg/mL (E. faecalis EFS008); 32 µg/mL (K. pneumoniae KP001); greater than 128 µg/mL (P. aeruginosa PA004). In addition, the MIC (S. aureus SA093) was determined as 2 µg/mL, the MIC (S. epidermidis SE010) is 4 µg/mL, the MIC (S. maltophilia SMA002) turned out to be 64 µg/mL and the MIC (S. marcescens SMS003) is greater than 128 µg/mL.

With W W P W R R K [MBI 11D9M8], the MIC was 128 µg/mL under setting [1]; greater than 128 µg/mL under setting [2]; greater than 128 µg/mL under setting [3]; 8 µg/mL under setting [4]; 128 µg/mL (E. faecalis EFS002); 128 µg/mL under setting [5]. Moreover, the MIC is 32 µg/mL (E. faecium EFM002); greater than 128 µg/mL under setting [6]; greater than 128 µg/mL under setting [7]; 32 µg/mL (S. aureus SA007); 128 µg/mL under setting [8]; 128 µg/mL (S. aureus SA016). In addition, the MIC was 8 µg/mL under setting [9], 128 µg/mL under setting [10], greater than 128 µg/mL under setting [11] and greater than 128 µg/mL under setting [12].

With I L K K W P W W W R K [MBI 11D15CN], the MIC is 32 µg/mL (E. faecalis EFS002), 4 µg/mL (E. faecium EFM003) and 8 µg/mL (S. aureus SA009).

Regarding I L K K W P W W P W R R K [MBI 11M8], the MIC amounted to 32 µg/mL (E. faecalis EFS002), 32 µg/mL (E. faecium EFM002) and 32 µg/mL (S. aureus SA008).

With I L K K W P W W P W R R K [MBI 11CNX1], the MIC by setting is: (A. calcoaceticus AC001) greater than 64 µg/mL; (E. cloacae ECL007) greater than 64 µg/mL; (E. coli ECO005) 64 µg/mL; (E. faecalis EFS004) 16 µg/mL; (K. pneumoniae KP001) greater than 64 µg/mL; (P. aeruginosa PA024) greater than 64 µg/mL. For the same substance, the MIC reads like this: (S. aureus SA006) 2 µg/mL; (S. maltophilia SMA002) greater than 64 µg/mL; (S. marcescens SMS003) greater than 64 µg/mL.

“ILKKWPWWPWRRMILKKAGS [MBI 11D5CN]”: the MIC (A. calcoaceticus AC001) is greater than 64 µg/mL; the MIC (E. cloacae ECL007) was greater than 64 µg/mL; the MIC (E. coli ECO003) was determined as 64 µg/mL; the MIC (E. faecalis EFS002) stood at 16 µg/mL; the MIC (E. faecium EFM003) was 1 µg/mL; the MIC (K. pneumoniae KP001) is greater than 64 µg/mL. In addition, the MIC was greater than 64 µg/mL (P. aeruginosa PA003), 8 µg/mL (S. aureus SA005), 64 µg/mL (S. maltophilia SMA001) and greater than 64 µg/mL (S. marcescens SMS004).

Take “I L R R W P W W P W R R K [MBI 11B1CNW1]”: the MIC was 16 µg/mL (A. calcoaceticus AC002); 64 µg/mL (E. cloacae ECL007); 32 µg/mL (E. coli ECO005); 8 µg/mL (E. faecalis EFS004); 32 µg/mL (K. pneumoniae KP001); 64 µg/mL (P. aeruginosa PA004). The MIC reads like this: (S. aureus SA014) 16 µg/mL; (S. epidermidis SE010) 8 µg/mL; (S. maltophilia SMA002) 32 µg/mL; (S. marcescens SMS003) greater than 128 µg/mL.

For the substance I L K K F P W F P W R R K [MBI 11A6CN], the MIC is 2 µg/mL (A. calcoaceticus AC002); greater than 128 µg/mL (E. cloacae ECL007); 16 µg/mL (E. coli ECO005); 1 µg/mL (E. faecalis EFS001); 64 µg/mL (E. faecalis EFS004); 8 µg/mL (E. faecalis EFS008). For the same substance, the MIC was 2 µg/mL (E. faecium EFM003); 32 µg/mL (K. pneumoniae KP001); greater than 128 µg/mL (P. aeruginosa PA004); 4 µg/mL (S. aureus SA014); 2 µg/mL (S. aureus SA016).

Consider I L K K W W W P W R K [MBI 11D14CN], for which the MIC (E. faecalis EFS002) was 32 µg/mL, the MIC (E. faecium EFM003) was found to be 1 µg/mL and the MIC (S. aureus SA009) was determined as 4 µg/mL.

Take I L P W K W P W W P W R R [MBI 10A]: the MIC was 16 µg/mL (E. faecalis EFS004), 8 µg/mL (E. faecium EFM003) and 8 µg/mL (S. aureus SA010).

As for I L K K P W W P W R R K [MBI 11G3CN], the MIC by setting is: (E. cloacae ECL007) greater than 128 µg/mL; (E. coli ECO003) 64 µg/mL; (E. faecalis EFS002) 64 µg/mL; (E. faecium EFM002) 32 µg/mL; (K. pneumoniae KP001) greater than 128 µg/mL; (P. aeruginosa PA003) greater than 128 µg/mL. For the same substance, the MIC was 8 µg/mL (S. aureus SA009), greater than 128 µg/mL (S. maltophilia SMA001) and greater than 128 µg/mL (S. marcescens SMS004).

With “I L K K W P W W P W R R K M [MBI 11D11H]”, the MIC is greater than 64 µg/mL (A. calcoaceticus AC001); greater than 64 µg/mL (E. cloacae ECL007); 32 µg/mL (E. coli ECO002); greater than 64 µg/mL (K. pneumoniae KP001); greater than 64 µg/mL (P. aeruginosa PA001); 4 µg/mL (S. aureus SA008). Also, the MIC was greater than 64 µg/mL (S. maltophilia SMA002) and greater than 64 µg/mL (S. marcescens SMS004).

With i L K K W P W W P W R R k [MBI 11E3CN], the MIC is 16 µg/mL (A. calcoaceticus AC001); greater than 128 µg/mL (E. cloacae ECL007); 4 µg/mL (E. coli ECO001); 8 µg/mL (E. faecalis EFS004); 2 µg/mL (E. faecium EFM003); greater than 128 µg/mL (H. influenzae HIN002). In addition, the MIC is, setting by setting: (K. pneumoniae KP002) 32 µg/mL; (P. aeruginosa PA041) 64 µg/mL; (P. mirabilis PM001) greater than 128 µg/mL; (S. aureus SA010) 2 µg/mL; (S. epidermidis SE002) 1 µg/mL; (S. maltophilia SMA001) 32 µg/mL. Besides, the MIC reads like this: (S. marcescens SMS004) greater than 128 µg/mL; (S. pneumoniae SBSPN2) greater than 128 µg/mL; (S. pneumoniae SPN044) greater than 128 µg/mL; (S. pyogenes SPY002) 16 µg/mL.

Turning to I L K K W P W P W R R K [MBI 11A4CN], the MIC was 8 µg/mL (A. calcoaceticus AC002); greater than 128 µg/mL (E. cloacae ECL007); 32 µg/mL (E. coli ECO003); 64 µg/mL (E. faecalis EFS002); 32 µg/mL (E. faecium EFM001); greater than 128 µg/mL (K. pneumoniae KP001). The MIC is, setting by setting: (P. aeruginosa PA004) greater than 128 µg/mL; (S. aureus SA005) 2 µg/mL; (S. epidermidis SE002) 8 µg/mL; (S. maltophilia SMA002) greater than 128 µg/mL; (S. marcescens SMS004) greater than 128 µg/mL.

For the substance I L K W P W W P W R R K [MBI 11B3CN], the MIC (A. calcoaceticus AC001) is 64 µg/mL; the MIC (E. cloacae ECL007) was greater than 128 µg/mL; the MIC (E. coli ECO002) was 16 µg/mL; the MIC (E. faecalis EFS001) amounted to 16 µg/mL; the MIC (E. faecium EFM001) stood at 8 µg/mL; the MIC (K. pneumoniae KP002) was 64 µg/mL. Also, the MIC is greater than 128 µg/mL (P. aeruginosa PA003), 4 µg/mL (S. aureus SA010), 32 µg/mL (S. maltophilia SMA002) and greater than 128 µg/mL (S. marcescens SMS004).

With I L K K W P W W P W R R K [MBI 11A], the MIC by setting is: (A. calcoaceticus AC001) greater than 64 µg/mL; (E. cloacae ECL007) greater than 64 µg/mL; (E. coli ECO005) greater than 64 µg/mL; (E. faecalis EFS004) 32 µg/mL; (K. pneumoniae KP001) 64 µg/mL; (P. aeruginosa PA024) greater than 64 µg/mL. Moreover, the MIC is 4 µg/mL (S. aureus SA002), greater than 64 µg/mL (S. maltophilia SMA002) and greater than 64 µg/mL (S. marcescens SMS003).

Values taken from patent US6503881B2 (priority 1996, dated 2003).
